From US10449547B2, “Preparation of a powdery pharmaceutical composition by means of cryo-milling” (GRÜNENTHAL GMBH, priority 2013, dated 2019)

Test: Relative alpha-tocopherol content within blend before and after cryo-milling
Type: physicochemical
Description: Relative Alpha-Tocopherol Content within Blend Before and after Cryo-Milling: […]

Cc1c(C)c2c(c(C)c1O)CC[C@@](C)(CCC[C@H](C)CCC[C@H](C)CCCC(C)C)O2 [alpha-tocopherol]
degradation of alpha-tocopherol with cryo-milling process: did not degrade
